Measured values: patent US20210255184A1, “Biosensor Device and Methods” (The New Zealand Institute for Plant and Food Research …, priority 2018, published 2021)
pEC50: −log10 of the molar value.

Molecular target: T1, Or10a/Orco (Drosophila melanogaster, UniProt Q9VYZ1)
T1 construct: his-tag; made in house; host or cells: baculovirus-infected Sf9 cells
T1 sequence (Q9VYZ1 1-406): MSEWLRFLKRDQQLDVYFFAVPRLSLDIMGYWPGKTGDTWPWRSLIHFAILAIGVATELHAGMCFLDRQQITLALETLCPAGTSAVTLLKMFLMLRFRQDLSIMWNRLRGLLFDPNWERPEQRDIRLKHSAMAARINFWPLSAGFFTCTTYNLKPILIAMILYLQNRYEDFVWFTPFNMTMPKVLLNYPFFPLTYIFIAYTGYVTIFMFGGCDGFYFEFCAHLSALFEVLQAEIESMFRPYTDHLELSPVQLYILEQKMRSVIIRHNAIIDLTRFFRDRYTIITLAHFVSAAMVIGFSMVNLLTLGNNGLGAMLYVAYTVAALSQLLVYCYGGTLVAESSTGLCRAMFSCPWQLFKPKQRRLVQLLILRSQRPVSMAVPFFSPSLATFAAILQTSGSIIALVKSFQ
T1 sequence (Q9VNB5 1-486 partner): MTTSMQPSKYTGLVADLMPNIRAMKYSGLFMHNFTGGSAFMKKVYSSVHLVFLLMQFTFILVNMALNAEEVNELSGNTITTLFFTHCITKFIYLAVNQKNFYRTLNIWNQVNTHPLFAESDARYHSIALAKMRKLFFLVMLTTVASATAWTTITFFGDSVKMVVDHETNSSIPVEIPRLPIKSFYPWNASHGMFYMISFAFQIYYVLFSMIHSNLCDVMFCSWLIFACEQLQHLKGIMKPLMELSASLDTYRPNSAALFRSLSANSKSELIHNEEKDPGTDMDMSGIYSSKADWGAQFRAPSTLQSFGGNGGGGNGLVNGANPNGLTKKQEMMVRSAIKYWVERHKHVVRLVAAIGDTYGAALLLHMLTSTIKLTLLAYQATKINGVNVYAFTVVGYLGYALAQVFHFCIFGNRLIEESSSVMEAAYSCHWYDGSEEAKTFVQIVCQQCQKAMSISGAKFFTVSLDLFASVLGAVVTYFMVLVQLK
Experiment: EIS sensor, Or10a/Orco liposomes on gold electrode
Type: biochemical
Procedure: Prior to their use, liposomes were defrosted on ice and then destabilized by incubating with 0.2% CHAPS for 15 min at room temperature. Then 200 μg of purified odorant receptor^28 was added to 1 mg of liposomes and rotated at 10 rpm for 1 h at room temperature. Excess detergent was removed by four additions of 25 mg of Bio-Beads SM-2 (Bio-Rad, USA) and incubation at 4° C. for 30 min, 2 h, overnight and a further 2 h respectively. The Bio-Beads were removed after each incubation period. The OrX or OrX/Orco integrated liposomes were pelleted by centrifugation at 100,000 g for 1 h, and were resuspended in 500 μL of rehydration buffer. Integration of OrXs and Orco into liposomes was assessed by density gradient ultracentrifugation (DGU) using Accudenz (Accurate Chemical & Scientific Corporation, USA). The integrated liposomes were brought to 40% Accudenz by the addition of an equal volume of 80% Accudenz solution, placed at the bottom of an ultra-centrifugation tube, and overlaid with 30% Accudenz solution, and DGU buffer (25 mM HEPES pH 7.5, 100 mM NaCl, 10% glycerol). The sample was then centrifuged at 100,000 g for 4 h at 4° C. Liposomes will float to the top of the gradient after Accudenz DGU due to their low density.
2 mM MHA was prepared by dissolving 1.36 μl of MHA in 5 ml ethanol (AR grade). The cleaned electrodes were immersed into MHA solution and incubated overnight. The next day, all the electrodes were washed with ethanol and deionised water thoroughly in order to remove the unreacted acid. A 2:1 mol:mol ratio of EDC:NHS (100 mM EDC, 50 mM NHS) was prepared in 2 ml PBS (pH=6.5) solution. Then, the electrodes were covered in 100 μl of this solution at 28° C. for an hour to activate the carboxylic (COOH) groups of the MHA.
PBS solution was prepared by immersing one tablet of PBS in 200 ml of milli-Q water (according to manufacturers instructions) and filtered using 0.2-μm syringe filter. The pH of the prepared buffer solution was measured with a pH meter. OrX liposomes or OrX/Orco liposomes were diluted 100 fold in PBS buffer solution (pH=7.4) and the COOH-activated electrodes were incubated in that buffer solution at room temperature for one hour. Then, the electrodes were washed extensively with PBS buffer solution to wash out any unbound liposomes.
PBS (pH=7.4) was used as an electrolyte to conduct electrochemical measurements. PBS buffer was degassed for about 30 minutes prior to electrochemical measurements. […] OR immobilized electrodes were incubated in relevant odorant solution for ˜30 minutes each and washed gently with PBS before EIS measurements. […]

In the case of `COC(=O)c1ccccc1O` [methyl salicylate], the limit of detection (EIS dose response, ligand 1 aM to 100 μM) was 1 fM, the pEC50 (Table 1, approximate) was about 12.00 and the Sensitivity limit (Table 1, * estimated visually from dose response graph) was ~10^−15 M*. The “Detection Range” value (Table 3) was 10^−15-10^−7 M.
